SMILES strings stand for the structures.

The target of assay [1] is T1, human α4β2 nAChR subtype (Homo sapiens, UniProt P17787+P43681).
T1 construct: expressed in transfected cells; host or cells: SH-EP1 clonal cells expressing human α4β2
As to the kind of experiment: Radioligand binding, [3H]nicotine, membranes from SH-EP1/human α4β2 clonal cells. To be noted: [3H]nicotine 5 nM, SH-EP1/human α4β2 cell membranes. The procedure: Preparation of membranes from SH-EP1/human α4β2 clonal cells: Cell pellets from 40 150 mm culture dishes were pooled, and homogenized by Polytron (Kinematica GmbH, Switzerland) in 20 milliliters of ice-cold preparative buffer. The homogenate was centrifuged at 48,000 g for 20 minutes at 4° C. The resulting pellet was re-suspended in 20 mL of ice-cold preparative buffer and stored at −20° C.
(§1) On the day of the assay, the frozen membranes were thawed and spun at 48,000×g for 20 min. The supernatant was decanted and discarded. The pellet was resuspended in Dulbecco's phosphate buffered saline (PBS, Life Technologies) pH 7.4 and homogenized with the Polytron for 6 seconds. Protein concentrations were determined using a Pierce BCA Protein Assay Kit, with bovine serum albumin as the standard (Pierce Chemical Company, Rockford, Ill.).
(§2) Membrane preparations (approximately 50 μg for human and 200-300 μg protein for rat α4β2) were incubated in PBS (50 μL and 100 μL respectively) in the presence of competitor compound (0.01 nM to 100 μM) and 5 nM [^3H]nicotine for 2-3 hours on ice. Incubation was terminated by rapid filtration on a multi-manifold tissue harvester (Brandel, Gaithersburg, Md.) using GF/B filters presoaked in 0.33% polyethyleneimine (w/v) to reduce non-specific binding. Tissue was rinsed 3 times in PBS, pH 7.4. Scintillation fluid was added to filters containing the washed tissue and allowed to equilibrate. Filters were then counted to determine radioactivity bound to the membranes by liquid scintillation counting (2200CA Tri-Carb LSC, Packard Instruments, 50% efficiency or Wallac Trilux 1450 MicroBeta, 40% efficiency, Perkin Elmer).
(§3) Data were expressed as disintegrations per minute (DPMs). Within each assay, each point had 2-3 replicates. The replicates for each point were averaged and plotted against the log of the drug concentration. IC50, which is the concentration of the compound that produces 50% inhibition of binding, was determined by least squares non-linear regression. Ki values were calculated using the Cheng-Prussof equation (1973): […]

The target in assay [2] is T2, α7 nAChR subtype (Rattus norvegicus, UniProt Q05941).
T2 construct: The hippocampus was removed and placed in 10 volumes (weight:volume) of ice-cold preparative buffer; from tissue; host or cells: rat hippocampus membranes (female Sprague-Dawley)
T2 sequence (Q05941 23-502): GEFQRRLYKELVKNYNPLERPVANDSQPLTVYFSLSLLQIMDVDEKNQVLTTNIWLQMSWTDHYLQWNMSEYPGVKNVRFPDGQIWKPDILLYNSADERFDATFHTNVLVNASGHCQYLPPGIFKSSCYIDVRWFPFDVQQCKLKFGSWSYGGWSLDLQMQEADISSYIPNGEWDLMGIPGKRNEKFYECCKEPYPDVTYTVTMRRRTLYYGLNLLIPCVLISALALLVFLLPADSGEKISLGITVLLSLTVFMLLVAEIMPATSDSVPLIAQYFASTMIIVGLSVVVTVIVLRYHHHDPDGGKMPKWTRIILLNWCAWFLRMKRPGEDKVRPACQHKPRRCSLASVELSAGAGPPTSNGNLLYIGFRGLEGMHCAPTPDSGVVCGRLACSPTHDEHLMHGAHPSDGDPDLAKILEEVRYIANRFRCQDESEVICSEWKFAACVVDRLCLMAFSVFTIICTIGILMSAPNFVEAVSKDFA
Kind of assay: Radioligand binding, [3H]MLA, rat hippocampus membranes. The note with it: for inhibition at 5 µM: read-out: α7 high through-put screening (HTS) result; for Ki: [3H]MLA 5 nM, rat hippocampus membranes, read-out: α7 Ki. How it is done: Rats (female, Sprague-Dawley), weighing 150-250 g, were maintained on a 12 h light/dark cycle and were allowed free access to water and food supplied by PMI Nutrition International, Inc. Animals were anesthetized with 70% CO2, then decapitated. Brains were removed and placed on an ice-cold platform. The hippocampus was removed and placed in 10 volumes (weight:volume) of ice-cold preparative buffer (137 mM NaCl, 10.7 mM KCl, 5.8 mM KH2PO4, 8 mM Na2HPO4, 20 mM HEPES (free acid), 5 mM iodoacetamide, 1.6 mM EDTA, pH 7.4); PMSF, dissolved in methanol to a final concentration of 100 μM, was added and the tissue suspension was homogenized by Polytron. The homogenate was centrifuged at 18,000×g for 20 min at 4° C. and the resulting pellet was re-suspended in 10 volumes of ice-cold water. After 60 min incubation on ice, a new pellet was collected by centrifugation at 18,000×g for 20 min at 4° C. The final pellet was re-suspended in 10 volumes of buffer and stored at −20° C. On the day of the assay, tissue was thawed, centrifuged at 18,000×g for 20 min, and then re-suspended in ice-cold PBS (Dulbecco's Phosphate Buffered Saline, 138 mM NaCl, 2.67 mM KCl, 1.47 mM KH2PO4, 8.1 mM Na2HPO4, 0.9 mM CaCl2, 0.5 mM MgCl2, Invitrogen/Gibco, pH 7.4) to a final concentration of approximately 2 mg protein/mL. Protein was determined by the method of Lowry et al., J. Biol. Chem. 193: 265 (1951), using bovine serum albumin as the standard.
The binding of [^3H]MLA was measured using a modification of the methods of Davies et al., Neuropharmacol. 38: 679 (1999). [^3H]MLA (Specific Activity=25-35 Ci/mmol) was obtained from Tocris. The binding of [^3H]MLA was determined using a 2 h incubation at 21° C. Incubations were conducted in 48-well micro-titre plates and contained about 200 μg of protein per well in a final incubation volume of 300 μL. The incubation buffer was PBS and the final concentration of [^3H]MLA was 5 nM. The binding reaction was terminated by filtration of the protein containing bound ligand onto glass fiber filters (GF/B, Brandel) using a Brandel Tissue Harvester at room temperature. Filters were soaked in de-ionized water containing 0.33% polyethyleneimine to reduce non-specific binding. Each filter was washed with PBS (3×1 mL) at room temperature. Non-specific binding was determined by inclusion of 50 μM non-radioactive MLA in selected wells.
The inhibition of [^3H]MLA binding by test compounds was determined by including seven different concentrations of the test compound in selected wells. Each concentration was replicated in triplicate. IC50 values were estimated as the concentration of compound that inhibited 50 percent of specific [^3H]MLA binding. Inhibition constants (Ki values), reported in nM, were calculated from the IC50 values using the method of Cheng et al., Biochem. Pharmacol. 22: 3099-3108 (1973).

Assay [3] has as its target T3, rat α4β2 nAChR subtype (Rattus norvegicus, UniProt P09483+P12390).
T3 construct: The cerebral cortex was removed and placed in 20 volumes (weight:volume) of ice-cold preparative buffer; from tissue; host or cells: rat cerebral cortex membranes (female Sprague-Dawley)
Kind of assay: Radioligand binding, [3H]nicotine, rat cortex membranes. To be noted: [3H]nicotine 5 nM. The procedure:
Preparation of Membranes from Rat Cortex: Rats (Female, Sprague-Dawley), weighing 150-250 g, were maintained on a 12 h light/dark cycle and were allowed free access to water and food supplied by PMI Nutrition International, Inc. Animals were anesthetized with 70% CO2, and then decapitated. Brains were removed and placed on an ice-cold platform. The cerebral cortex was removed and placed in 20 volumes (weight:volume) of ice-cold preparative buffer (137 mM NaCl, 10.7 mM KCl, 5.8 mM KH2PO4, 8 mM Na2HPO4, 20 mM HEPES (free acid), 5 mM iodoacetamide, 1.6 mM EDTA, pH 7.4); PMSF, dissolved in methanol to a final concentration of 100 μM, was added and the suspension was homogenized by Polytron. The homogenate was centrifuged at 18,000×g for 20 min at 4° C. and the resulting pellet was re-suspended in 20 volumes of ice-cold water. After 60 min incubation on ice, a new pellet was collected by centrifugation at 18,000×g for 20 min at 4° C. The final pellet was re-suspended in 10 volumes of buffer and stored at −20° C.
as §1, §2, §3

T1 sequence (P43681 29-627 limits assumed): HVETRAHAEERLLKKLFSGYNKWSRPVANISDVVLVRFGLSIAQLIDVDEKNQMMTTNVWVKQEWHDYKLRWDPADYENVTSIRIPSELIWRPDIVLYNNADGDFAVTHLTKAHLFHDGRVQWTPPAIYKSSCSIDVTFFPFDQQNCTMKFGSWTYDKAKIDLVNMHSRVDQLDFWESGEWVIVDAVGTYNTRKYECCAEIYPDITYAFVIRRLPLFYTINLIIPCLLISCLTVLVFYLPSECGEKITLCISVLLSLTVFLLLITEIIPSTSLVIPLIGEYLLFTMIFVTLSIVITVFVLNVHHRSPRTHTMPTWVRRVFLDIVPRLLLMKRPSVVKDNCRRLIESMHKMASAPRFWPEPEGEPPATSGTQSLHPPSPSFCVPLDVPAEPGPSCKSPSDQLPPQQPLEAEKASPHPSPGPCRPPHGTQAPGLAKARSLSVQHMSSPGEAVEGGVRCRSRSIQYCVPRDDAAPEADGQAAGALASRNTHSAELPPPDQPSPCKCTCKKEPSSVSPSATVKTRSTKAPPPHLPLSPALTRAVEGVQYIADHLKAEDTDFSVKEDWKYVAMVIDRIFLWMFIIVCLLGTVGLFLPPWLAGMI
T1 sequence (P17787 26-502): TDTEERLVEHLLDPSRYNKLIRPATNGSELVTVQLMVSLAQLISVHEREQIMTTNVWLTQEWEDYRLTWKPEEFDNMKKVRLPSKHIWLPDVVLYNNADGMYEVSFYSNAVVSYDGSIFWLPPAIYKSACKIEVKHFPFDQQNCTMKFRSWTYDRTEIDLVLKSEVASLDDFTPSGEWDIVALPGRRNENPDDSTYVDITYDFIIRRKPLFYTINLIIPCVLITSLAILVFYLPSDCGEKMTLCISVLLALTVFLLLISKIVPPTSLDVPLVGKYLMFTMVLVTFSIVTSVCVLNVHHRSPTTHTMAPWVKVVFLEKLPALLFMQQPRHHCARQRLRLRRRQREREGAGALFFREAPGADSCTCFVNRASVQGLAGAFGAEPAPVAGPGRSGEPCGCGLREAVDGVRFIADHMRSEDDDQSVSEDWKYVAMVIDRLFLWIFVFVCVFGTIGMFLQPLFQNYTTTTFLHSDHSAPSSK
T3 sequence (P09483 31-630): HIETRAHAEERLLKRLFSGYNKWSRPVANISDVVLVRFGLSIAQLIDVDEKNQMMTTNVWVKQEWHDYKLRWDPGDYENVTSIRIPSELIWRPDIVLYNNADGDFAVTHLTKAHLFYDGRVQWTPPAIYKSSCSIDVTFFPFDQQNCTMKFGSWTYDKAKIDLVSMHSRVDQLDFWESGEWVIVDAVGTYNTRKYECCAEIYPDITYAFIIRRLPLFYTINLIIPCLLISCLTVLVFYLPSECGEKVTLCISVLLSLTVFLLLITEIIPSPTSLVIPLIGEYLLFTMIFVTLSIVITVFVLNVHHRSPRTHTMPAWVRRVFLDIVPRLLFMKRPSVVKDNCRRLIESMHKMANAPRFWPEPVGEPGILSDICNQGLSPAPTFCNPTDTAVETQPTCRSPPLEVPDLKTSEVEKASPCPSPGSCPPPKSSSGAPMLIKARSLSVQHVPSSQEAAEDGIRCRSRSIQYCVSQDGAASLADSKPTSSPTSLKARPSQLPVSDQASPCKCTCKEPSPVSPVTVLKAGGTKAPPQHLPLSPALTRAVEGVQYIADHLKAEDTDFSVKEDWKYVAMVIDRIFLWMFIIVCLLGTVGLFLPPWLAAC
T3 sequence (P12390 25-500): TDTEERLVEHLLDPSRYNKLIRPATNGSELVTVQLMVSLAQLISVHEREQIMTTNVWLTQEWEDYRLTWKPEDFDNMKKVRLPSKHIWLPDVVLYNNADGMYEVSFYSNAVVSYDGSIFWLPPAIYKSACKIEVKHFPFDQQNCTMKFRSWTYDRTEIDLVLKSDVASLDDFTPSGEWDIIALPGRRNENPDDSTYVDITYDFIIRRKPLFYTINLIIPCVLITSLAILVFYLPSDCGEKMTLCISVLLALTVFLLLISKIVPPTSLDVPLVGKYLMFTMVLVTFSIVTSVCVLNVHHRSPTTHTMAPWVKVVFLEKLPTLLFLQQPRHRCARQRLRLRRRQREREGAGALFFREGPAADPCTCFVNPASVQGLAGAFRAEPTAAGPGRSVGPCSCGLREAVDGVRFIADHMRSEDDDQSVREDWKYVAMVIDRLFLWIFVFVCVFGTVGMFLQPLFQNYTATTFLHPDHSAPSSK

A word on the Ki: it is the dissociation constant of the complex between target and ligand, obtained from inhibition or displacement. `CC(=O)N1CC2CNCC2C1` (stereo not drawn) [Example 10-1]: the inhibition constant (Ki) in assay [1] is 38.5 nM; in assay [3], 20.5 nM. The inhibition at 5 µM in assay [2] was under 50%.

As for `O=C(C1CC1)N1CC2CNCC2C1` (stereo not drawn) [Example 10-2], the values for the Ki in assay [1], in assay [2] and in assay [3] were 1.8 nM, 919 nM and 17.3 nM, respectively.

On to `O=C(C1CCCC1)N1CC2CNCC2C1` (stereo not drawn) [Example 10-3], for which the inhibitory constant (Ki) in assay [1] was 29.6 nM; in assay [3], 27.7 nM. The inhibition at 5 µM in assay [2] was under 50%.

As for `COCC(=O)N1CC2CNCC2C1` (stereo not drawn) [Example 10-4], the Ki worked out at 323 nM in assay [1], 12400 nM in assay [2] and 137 nM in assay [3].

Take `C=CCC(=O)N1CC2CNCC2C1` (stereo not drawn) [Example 10-5]: the inhibition constant (Ki) came out at 140 nM in assay [1] and 22.5 nM in assay [3]. In assay [2], the inhibition at 5 µM is under 50%.

On to `O=C(C1CC=CC1)N1CC2CNCC2C1` (stereo not drawn) [Example 10-7], for which the Ki amounted to 72.2 nM in assay [1] and 28.4 nM in assay [3]. Also, the inhibition at 5 µM in assay [2] is under 50%.

With `O=C(C1=CCCC1)N1CC2CNCC2C1` (stereo not drawn) [Example 10-8], the Ki in assay [1] amounted to 296 nM; in assay [3], 116 nM. Besides, in assay [2], the inhibition at 5 µM is under 50%.

Regarding `O=C(C(F)F)N1CC2CNCC2C1` (stereo not drawn) [Example 10-9], the figures for the inhibition constant Ki in assay [1] and in assay [3] were 31.7 nM and 4.3 nM, respectively. The inhibition at 5 µM in assay [2] was under 50%.

Regarding `CC(C)=CC(=O)N1CC2CNCC2C1` (stereo not drawn) [Example 10-10], the Ki worked out at 79.7 nM in assay [1] and 54.2 nM in assay [3]. Besides, the inhibition at 5 µM in assay [2] is under 50%.

In the case of `O=C(CF)N1CC2CNCC2C1` (stereo not drawn) [Example 10-11], the Ki in assay [1] was found to be 45.1 nM; in assay [3], 62.2 nM. Also, the inhibition at 5 µM in assay [2] is under 50%.

For `NC(=O)CC(=O)N1CC2CNCC2C1` (stereo not drawn) [Example 10-12], the inhibitory constant (Ki) in assay [1] is 746 nM; in assay [3] it was 1390 nM. In addition, in assay [2], the inhibition at 5 µM is under 50%.

Regarding `COCCC(=O)N1CC2CNCC2C1` (stereo not drawn) [Example 10-13], the Ki came to 220 nM in assay [1] and 305 nM in assay [3]. For the same compound, the inhibition at 5 µM in assay [2] is under 50%.

`CCC(=O)N1CC2CNCC2C1` (stereo not drawn) [Example 10-14]: the Ki in assay [1] was found to be 8.5 nM; in assay [3] it was 16.9 nM. Moreover, the inhibition at 5 µM in assay [2] is under 50%.

`CCCC(=O)N1CC2CNCC2C1` (stereo not drawn) [Example 10-15]: the Ki turned out to be 48.8 nM in assay [1] and 112 nM in assay [3]. Further, the inhibition at 5 µM in assay [2] is under 50%.

Consider `O=C(N1CC2CNCC2C1)C1(C(F)(F)F)CC1` (stereo not drawn) [Example 10-17], for which the Ki in assay [1] was 303 nM; in assay [3], 419 nM. For the same compound, the inhibition at 5 µM in assay [2] is under 50%.

Values taken from US20110071180A1, “SUB-TYPE SELECTIVE AMIDES OF DIAZABICYCLOALKANES” (Targacept, Inc., priority 2008, published 2011).
